pEC50: −log10 of the molar value.
How the values were obtained:
[1] = biological target: T1, Stimulator of interferon genes protein (Homo sapiens, UniProt Q86WV6); assay: Activation of wild-type human STING expressed in digitonin treated HEK293T cells co-expressing IRF3-activated ISRE assessed as IRF3 reporter activation by luciferase reporter gene assay; type: cell-based
[2] = biological target: Stimulator of interferon genes protein (Homo sapiens, UniProt Q86WV6, G230A/R293Q/R71H); assay: Activation of human STING HAQ mutant expressed in digitonin treated HEK293T cells co-expressing IRF3-activated ISRE assessed as IRF3 reporter activation by luciferase reporter gene assay; type: cell-based
Sequence of Stimulator of interferon genes protein (Homo sapiens, UniProt Q86WV6, G230A/R293Q/R71H) (Q86WV6 whole entry R71H/G230A/R293Q): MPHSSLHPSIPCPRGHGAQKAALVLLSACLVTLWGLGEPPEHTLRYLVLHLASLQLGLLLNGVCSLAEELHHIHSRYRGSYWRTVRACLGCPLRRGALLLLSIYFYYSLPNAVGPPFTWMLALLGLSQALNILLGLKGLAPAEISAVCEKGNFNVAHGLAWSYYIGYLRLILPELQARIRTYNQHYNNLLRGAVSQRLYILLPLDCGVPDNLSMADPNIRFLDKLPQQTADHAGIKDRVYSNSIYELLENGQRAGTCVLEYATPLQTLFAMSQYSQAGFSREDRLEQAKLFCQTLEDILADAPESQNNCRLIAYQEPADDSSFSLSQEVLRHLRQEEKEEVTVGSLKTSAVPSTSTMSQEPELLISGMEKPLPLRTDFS

[3] = Activation of human STING Q mutant expressed in digitonin treated HEK293T cells co-expressing IRF3-activated ISRE assessed as IRF3 reporter activation by luciferase reporter gene assay; type: cell-based; details: HEK-293T
[4] = biological target: T1, Stimulator of interferon genes protein; assay: Activation of wild-type human STING expressed in HEK293T cells co-expressing IRF3-activated ISRE assessed as IRF3 reporter activation measured after 30 mins by luciferase reporter gene assay; type: cell-based
[5] = biological target: T1, Stimulator of interferon genes protein; assay: Activation of wild-type human STING expressed in digitonin treated human THP1-Dual cells co-expressing IRF3-activated ISRE assessed as IRF3 reporter activation measured after 30 mins by luciferase reporter gene assay; type: cell-based
[6] = biological target: T1, Stimulator of interferon genes protein; assay: Activation of wild-type human STING expressed in human THP1-Dual cells co-expressing IRF3-activated ISRE assessed as IRF3 reporter activation measured after 7 hrs by luciferase reporter gene assay; type: cell-based
[7] = Induction of INF-alpha production in healthy human PBMC incubated for 16 hrs; type: functional, tissue-based
[8] = Induction of INF-gamma production in healthy human PBMC incubated for 16 hrs; type: functional, tissue-based
[9] = Induction of TNF-alpha production in healthy human PBMC incubated for 16 hrs; type: functional, tissue-based
[10] = biological target: T1, Stimulator of interferon genes protein; assay: Binding affinity to wild type STING (unknown origin) assessed as change in melting temperature by differential scanning fluorimetry; details: filed as activator
[11] = biological target: T1, Stimulator of interferon genes protein; assay: Binding affinity to human STING expressed in […] cells assessed as change in melting temperature by Cell-based assay; details: HEK293T, filed as activator
[12] = cells; details: Homo sapiens, HEK-293T
Description: Activation of human STING REF mutant expressed in digitonin treated HEK293T cells co-expressing IRF3-activated ISRE assessed as IRF3 reporter activation by luciferase reporter gene assay

[13] = biological target: T1, Stimulator of interferon genes protein; assay: Activation of wild-type human STING expressed in HEK293T cells co-expressing IRF3-activated ISRE assessed as IRF3 reporter activation measured after 7 hrs by luciferase reporter gene assay; type: cell-based
[14] = Potency index, ratio of test compound EC50 to prodrug EC50 for induction of INF-alpha production in healthy human PBMC incubated for 16 hrs; type: functional
[15] = Potency index, ratio of test compound EC50 to prodrug EC50 for induction of INF-gamma production in healthy human PBMC incubated for 16 hrs; type: functional
[16] = Potency index, ratio of test compound EC50 to prodrug EC50 for induction of TNF-alpha production in healthy human PBMC incubated for 16 hrs; type: functional
[17] = Stability in human plasma assessed as half life; type: ADME, cell-free
[18] = Stability in mouse plasma assessed as half life; type: ADME, cell-free
[19] = biological target: Stimulator of interferon genes protein (Homo sapiens, UniProt Q86WV6, G230A/R293Q); assay: Activation of human STING QA mutant expressed in digitonin treated HEK293T cells co-expressing IRF3-activated ISRE assessed as IRF3 reporter activation by luciferase reporter gene assay; type: cell-based
Sequence of Stimulator of interferon genes protein (Homo sapiens, UniProt Q86WV6, G230A/R293Q) (Q86WV6 whole entry G230A/R293Q): as the sequence (Q86WV6 whole entry R71H/G230A/R293Q) above, with H71R counted along it

[20] = Drug uptake in human THP1-Dual cells at 1.25 uM incubated for 2 hrs by HPLC-LS analysis; type: ADME, cell-based
[21] = Drug metabolism in human THP1-Dual cells assessed as 3',3'-c-di(2'F,2'dAMP) metabolite formation measured after 2 hrs by HPLC analysis; type: ADME, cell-based
[22] = Drug metabolism in human THP1-Dual cells assessed as 3',3'-c-di(2'F,2'dAMP) metabolite formation measured after 24 hrs by HPLC analysis; type: ADME, cell-based
[23] = Drug uptake in human THP1-Dual cells at 125 uM incubated for 24 hrs by HPLC-LS analysis; type: ADME, cell-based
[24] = Drug uptake in human THP1-Dual cells at extra cellular concentration incubated for 24 hrs by HPLC-LS analysis; type: ADME, cell-based

T1 sequence (Q86WV6 whole entry): as the sequence (Q86WV6 whole entry R71H/G230A/R293Q) above, with H71R, A230G, Q293R counted along it

Compound	pEC50 [1]	pEC50 [2]	pEC50 [3]	pEC50 [4]	pEC50 [5]	pEC50 [6]	ΔTm [10] [°C]	pEC50 [12]	pEC50 [19]	pEC50 [7]	pEC50 [8]	pEC50 [9]	other results
CC(C)(C)C(=O)OCO[P@]1(=O)OC[C@H]2O[C@@H](n3cnc4c(N)ncnc43)[C@H](F)[C@@H]2O[P@](=O)(OCOC(=O)C(C)(C)C)OC[C@H]2O[C@@H](n3cnc4c(N)ncnc43)[C@H](F)[C@@H]2O1	–	–	–	7.52	6.96	7.52	–	–	–	6.66	7.22	6.96	pEC50 [13]: 7.70; Ratio EC50 [14]: 234; Ratio EC50 [15]: 148; Ratio EC50 [16]: 279; half-life [17]: 1.17 h; half-life [18]: < 2 min
[3H]c1nc2c(N)ncnc2n1[C@@H]1O[C@@H]2CO[P@@](=O)(OCOC(=O)C(C)(C)C)O[C@H]3[C@@H](F)[C@H](n4c([3H])nc5c(N)ncnc54)O[C@@H]3CO[P@](=O)(OCOC(=O)C(C)(C)C)O[C@H]2[C@H]1F	–	–	–	–	–	–	–	–	–	–	–	–	Drug uptake [20]: Active; Drug metabolism [21]: Metabolite_Detected; Drug metabolism [22]: Metabolite_Notdetected
Nc1ncnc2c1ncn2[C@@H]1O[C@@H]2COP(=O)(O)O[C@H]3[C@@H](O)[C@H](n4cnc5c(N)ncnc54)O[C@@H]3COP(=O)(O)O[C@H]2[C@H]1O	–	6.72	5.15	–	–	–	–	–	6.77	–	–	–	–
[3H]c1nc2c(N)ncnc2n1[C@@H]1O[C@@H]2CO[P@@](=O)(OCOC(=O)C(C)(C)C)O[C@H]3[C@@H](F)[C@H](n4c([3H])nc5c(N)ncnc54)O[C@@H]3CO[P@@](=O)(OCOC(=O)C(C)(C)C)O[C@H]2[C@H]1F	–	–	–	–	–	–	–	–	–	–	–	–	Drug uptake [20]: Active; Drug metabolism [21]: Metabolite_Detected; Drug metabolism [22]: Metabolite_Notdetected
CC(C)(C)C(=O)OCO[P@@]1(=O)OC[C@H]2O[C@@H](n3cnc4c(N)ncnc43)[C@H](F)[C@@H]2O[P@](=O)(OCOC(=O)C(C)(C)C)OC[C@H]2O[C@@H](n3cnc4c(N)ncnc43)[C@H](F)[C@@H]2O1	–	–	–	7.15	6.74	7.30	–	–	–	6.36	7.15	6.62	pEC50 [13]: 7.40; Ratio EC50 [14]: 115; Ratio EC50 [15]: 110; half-life [17]: 1 h; half-life [18]: < 2 min
[3H]c1nc2c(N)ncnc2n1[C@@H]1O[C@@H]2COP(=O)(O)O[C@H]3[C@@H](F)[C@H](n4c([3H])nc5c(N)ncnc54)O[C@@H]3COP(=O)(O)O[C@H]2[C@H]1F	–	–	–	–	–	–	–	–	–	–	–	–	Drug uptake [23]: Not Active; Drug uptake [24]: Not Active

Second part, led by results:

pEC50 [1]	pEC50 [2]	pEC50 [3]	pEC50 [4]	pEC50 [5]	pEC50 [6]	ΔTm [10] [°C]	pEC50 [12]	pEC50 [19]	Compound	pEC50 [7]	pEC50 [8]	pEC50 [9]	other results
7.70	7.30	6.68	6.28	5.52	6.51	11.2	6.44	–	Nc1ncnc2c1ncn2[C@@H]1O[C@@H]2CO[P@@](=O)(S)O[C@H]3[C@@H](F)[C@H](n4cnc5c(N)ncnc54)O[C@@H]3CO[P@](=O)(S)O[C@H]2[C@H]1F	4.75	4.95	5.14	ΔTm [11]: 11.2 °C
6.77	6.06	5.39	5.64	4.92	5.11	5.5	5.06	6.59	Nc1ncnc2c1ncn2[C@@H]1O[C@@H]2CO[P@](=O)(S)O[C@H]3[C@@H](F)[C@H](n4cnc5c(N)ncnc54)O[C@@H]3CO[P@](=O)(S)O[C@H]2[C@H]1F	4.53	5.01	4.57	–
7.40	7.00	7.00	–	–	–	14.7	–	7.40	Nc1ncnc2c1ncn2[C@@H]1O[C@@H]2CO[P@@](=O)(S)O[C@H]3[C@@H](F)[C@H](n4cnc5c(N)ncnc54)O[C@@H]3COP(=O)(O)O[C@H]2[C@H]1F	–	–	–	ΔTm [11]: 14.7 °C
7.70	6.89	6.85	4.02	4.72	5.99	–	6.74	–	Nc1ncnc2c1ncn2[C@@H]1O[C@@H]2COP(=O)(O)O[C@H]3[C@@H](F)[C@H](n4cnc5c(N)ncnc54)O[C@@H]3COP(=O)(O)O[C@H]2[C@H]1F	4.29	5.08	4.89	pEC50 [13]: 5.10
8.15	6.89	6.35	–	–	–	8.9	6.04	7.15	Nc1ncnc2c1ncn2[C@@H]1O[C@@H]2CO[P@](=O)(S)O[C@H]3[C@@H](F)[C@H](n4cnc5c(N)ncnc54)O[C@@H]3COP(=O)(O)O[C@H]2[C@H]1F	–	–	–	ΔTm [11]: 8.9 °C
7.40	7.10	7.10	5.15	5.45	6.44	15.9	6.89	7.40	Nc1ncnc2c1ncn2[C@@H]1O[C@@H]2CO[P@@](=O)(S)O[C@H]3[C@@H](F)[C@H](n4cnc5c(N)ncnc54)O[C@@H]3CO[P@@](=O)(S)O[C@H]2[C@H]1F	4.41	5.22	5.03	–
